Source: ChEMBL document CHEMBL5126517, “Structure-Activity Relationship in the Leucettine Family of Kinase Inhibitors” (J Med Chem, 2022)

How the values were obtained:
[1] = molecular target: T1, Dual specificity tyrosine-phosphorylation-regulated kinase 2 (Homo sapiens, UniProt Q92630); assay: Inhibition of GST-fused human recombinant DYRK2 expressed in Escherichia coli using GRSRSRSRSRSR peptide as substrate incubated for 30 mins in presence of ATP by scintillation counting method
T1 sequence (Q92630 whole entry): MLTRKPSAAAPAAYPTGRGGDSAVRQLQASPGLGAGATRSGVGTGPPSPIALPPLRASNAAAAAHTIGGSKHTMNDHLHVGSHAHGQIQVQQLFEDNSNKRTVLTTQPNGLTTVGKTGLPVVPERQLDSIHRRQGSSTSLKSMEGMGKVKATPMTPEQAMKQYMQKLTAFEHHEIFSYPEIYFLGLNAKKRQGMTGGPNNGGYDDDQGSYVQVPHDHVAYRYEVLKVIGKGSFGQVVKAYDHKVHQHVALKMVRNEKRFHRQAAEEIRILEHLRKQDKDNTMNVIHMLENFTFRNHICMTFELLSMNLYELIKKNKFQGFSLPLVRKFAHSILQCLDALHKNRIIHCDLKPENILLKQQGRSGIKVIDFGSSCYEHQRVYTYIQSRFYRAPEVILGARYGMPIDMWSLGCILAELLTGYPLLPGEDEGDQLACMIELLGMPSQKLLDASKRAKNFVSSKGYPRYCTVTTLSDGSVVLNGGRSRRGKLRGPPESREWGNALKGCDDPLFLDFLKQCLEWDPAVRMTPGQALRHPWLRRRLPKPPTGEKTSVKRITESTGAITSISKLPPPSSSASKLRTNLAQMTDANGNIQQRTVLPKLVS

U2OS = assay: Induction of PI3K/mTor-dependent autophagy in human U2OS cells assessed as number of LC3 foci per cell at 10 uM measured after 4 hrs; assay type: cell-based; settings: filed as activator
[2] = molecular target: T2, Dual specificity tyrosine-phosphorylation-regulated kinase 3 (Homo sapiens, UniProt O43781); assay: Inhibition of GST-fused human recombinant DYRK3 expressed in Escherichia coli using GRSRSRSRSRSR peptide as substrate incubated for 30 mins in presence of ATP by scintillation counting method
T2 sequence (O43781 whole entry): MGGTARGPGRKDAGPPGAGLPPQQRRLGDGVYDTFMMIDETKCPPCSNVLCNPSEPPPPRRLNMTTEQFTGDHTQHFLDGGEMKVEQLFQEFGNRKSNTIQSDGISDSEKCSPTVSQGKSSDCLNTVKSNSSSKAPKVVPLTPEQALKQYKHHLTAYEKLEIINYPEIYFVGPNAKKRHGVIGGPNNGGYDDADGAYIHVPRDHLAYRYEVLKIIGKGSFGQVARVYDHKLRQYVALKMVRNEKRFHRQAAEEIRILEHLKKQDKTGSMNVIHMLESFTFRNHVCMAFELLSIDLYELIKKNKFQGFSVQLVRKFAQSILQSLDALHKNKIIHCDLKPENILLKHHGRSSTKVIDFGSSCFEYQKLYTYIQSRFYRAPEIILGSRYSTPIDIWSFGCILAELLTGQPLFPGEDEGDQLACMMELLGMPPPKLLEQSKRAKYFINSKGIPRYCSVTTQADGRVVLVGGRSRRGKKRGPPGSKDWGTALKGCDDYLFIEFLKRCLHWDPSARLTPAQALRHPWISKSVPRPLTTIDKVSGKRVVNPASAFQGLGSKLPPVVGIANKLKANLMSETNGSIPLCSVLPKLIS

Casein kinase 2 = Casein kinase 2 (Homo sapiens, UniProt P67870+P68400+P19784+Q8NEV1); assay: Inhibition of human recombinant CK2 using RRRDDDSDDD peptide as substrate incubated for 30 mins in presence of ATP by scintillation counting method; assay type: protein assay
[3] = molecular target: Glycogen synthase kinase-3 (Sus scrofa, UniProt B2LUN4+I6LNT8); assay: Inhibition of porcine brain GSK-3alpha/beta using YRRAAVPPSPSLSRHSSPHQpSEDEEE as substrate incubated for 30 mins in presence of ATP by scintillation counting method; assay type: tissue-based
HT-22 [4] = assay: Neuroprotective activity against glutamate-induced cell death in mouse HT-22 cells treated for 24 hrs by MTS assay; assay type: functional, cell-based; settings: HT-22, 24 h
[5] = molecular target: Dual specificity protein kinase CLK4 (Mus musculus, UniProt O35493); assay: Inhibition of GST-fused mouse recombinant CLK4 expressed in Escherichia coli using GRSRSRSRSRSR peptide as substrate incubated for 30 mins in presence of ATP by scintillation counting method
[6] = Neurotoxicity against mouse HT-22 cells assessed as cell survival at 20 uM treated for 24 hrs by MTS assay; assay type: toxicity, cell-based; settings: ht-22, 24 h
[7] = molecular target: Dual specificity tyrosine-phosphorylation-regulated kinase 1B (Homo sapiens, UniProt Q9Y463)
[8] = molecular target: Serine/threonine-protein kinase pim-1 (Homo sapiens, UniProt P11309); assay: Inhibition of human recombinant Pim1 expressed in Escherichia coli using histone H1 as substrate incubated for 30 mins in presence of ATP by scintillation counting method
HT-22 [9] = assay: Modulation of CLK1 pre-mRNA splicing in mouse HT-22 cells assessed as inclusion of CLK1 exon 4 by measuring change in threshold cycle at 10 uM measured after 4 hrs by real time PCR analysis; assay type: cell-based; settings: filed as modulator
[10] = molecular target: Dual specificity protein kinase CLK3 (Mus musculus, UniProt O35492); assay: Inhibition of GST-fused mouse recombinant CLK3 expressed in Escherichia coli using GRSRSRSRSRSR peptide as substrate incubated for 30 mins in presence of ATP by scintillation counting method
[11] = molecular target: Dual specificity tyrosine-phosphorylation-regulated kinase 1A (Homo sapiens, UniProt Q13627); assay: Inhibition of GST-fused human recombinant DYRK1A expressed in Escherichia coli using GRSRSRSRSRSR peptide as substrate incubated for 30 mins in presence of ATP by scintillation counting method
[12] = molecular target: Dual specificity protein kinase CLK1 (Mus musculus, UniProt P22518); assay: Inhibition of GST-fused mouse recombinant CLK1 expressed in Escherichia coli using GRSRSRSRSRSR peptide as substrate incubated for 30 mins in presence of ATP by scintillation counting method
[13] = molecular target: Dual specificity protein kinase CLK2 (Mus musculus, UniProt O35491); assay: Inhibition of mouse recombinant GST-fused CLK2 expressed in Escherichia coli using GRSRSRSRSRSR peptide as substrate incubated for 30 mins in presence of ATP by scintillation counting method
Cannabinoid receptor 1 = Cannabinoid receptor 1 (Homo sapiens, UniProt P21554); assay: Antagonist activity at CP-55940-activated CB1 receptor (unknown origin) at 10 uM by beta-arrestin assay relative to control; assay type: functional; design: scale not given: the % may be the effect or the level left
[14] = Neurotoxicity against mouse HT-22 cells assessed as cell survival treated for 24 hrs by MTS assay; assay type: toxicity, cell-based

Dual specificity protein kinase CLK2, sequence (O35491 whole entry, the tested form may be a part): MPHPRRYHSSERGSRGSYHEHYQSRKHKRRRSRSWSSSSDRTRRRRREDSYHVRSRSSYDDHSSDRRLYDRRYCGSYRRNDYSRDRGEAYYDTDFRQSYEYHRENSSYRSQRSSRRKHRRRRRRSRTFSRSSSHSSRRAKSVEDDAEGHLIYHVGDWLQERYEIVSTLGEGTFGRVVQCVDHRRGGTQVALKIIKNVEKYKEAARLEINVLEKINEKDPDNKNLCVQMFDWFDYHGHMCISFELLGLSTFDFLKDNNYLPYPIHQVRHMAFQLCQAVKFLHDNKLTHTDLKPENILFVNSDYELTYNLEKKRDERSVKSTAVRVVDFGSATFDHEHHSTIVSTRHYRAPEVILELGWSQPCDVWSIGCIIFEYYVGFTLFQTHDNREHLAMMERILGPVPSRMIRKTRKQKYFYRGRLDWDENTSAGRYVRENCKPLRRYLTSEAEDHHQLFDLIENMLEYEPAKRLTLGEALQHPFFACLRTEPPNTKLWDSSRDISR
Dual specificity protein kinase CLK4, sequence (O35493 whole entry, the tested form may be a part): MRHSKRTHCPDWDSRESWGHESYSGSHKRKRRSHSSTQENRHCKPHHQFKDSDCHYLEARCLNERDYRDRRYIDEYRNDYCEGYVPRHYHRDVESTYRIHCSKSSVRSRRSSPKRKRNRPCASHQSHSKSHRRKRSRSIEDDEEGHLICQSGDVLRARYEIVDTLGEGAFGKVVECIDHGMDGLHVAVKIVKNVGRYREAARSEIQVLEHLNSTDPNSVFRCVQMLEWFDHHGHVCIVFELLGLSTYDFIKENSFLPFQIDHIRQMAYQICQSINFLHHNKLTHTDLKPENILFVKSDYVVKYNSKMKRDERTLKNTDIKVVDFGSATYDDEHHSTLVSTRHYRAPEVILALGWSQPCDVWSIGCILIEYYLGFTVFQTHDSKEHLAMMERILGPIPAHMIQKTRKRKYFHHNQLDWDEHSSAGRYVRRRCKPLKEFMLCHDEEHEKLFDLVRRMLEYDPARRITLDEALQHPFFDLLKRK
Serine/threonine-protein kinase pim-1, sequence (P11309 whole entry): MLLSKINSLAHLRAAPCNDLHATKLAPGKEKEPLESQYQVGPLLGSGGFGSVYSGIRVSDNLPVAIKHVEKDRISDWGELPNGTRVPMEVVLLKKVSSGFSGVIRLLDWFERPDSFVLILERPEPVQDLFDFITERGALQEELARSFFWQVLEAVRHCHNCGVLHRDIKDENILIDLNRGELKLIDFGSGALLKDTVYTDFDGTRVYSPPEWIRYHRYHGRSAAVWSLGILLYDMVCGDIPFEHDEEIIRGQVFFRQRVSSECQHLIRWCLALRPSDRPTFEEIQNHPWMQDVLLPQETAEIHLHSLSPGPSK
Dual specificity tyrosine-phosphorylation-regulated kinase 1B, sequence (Q9Y463 whole entry): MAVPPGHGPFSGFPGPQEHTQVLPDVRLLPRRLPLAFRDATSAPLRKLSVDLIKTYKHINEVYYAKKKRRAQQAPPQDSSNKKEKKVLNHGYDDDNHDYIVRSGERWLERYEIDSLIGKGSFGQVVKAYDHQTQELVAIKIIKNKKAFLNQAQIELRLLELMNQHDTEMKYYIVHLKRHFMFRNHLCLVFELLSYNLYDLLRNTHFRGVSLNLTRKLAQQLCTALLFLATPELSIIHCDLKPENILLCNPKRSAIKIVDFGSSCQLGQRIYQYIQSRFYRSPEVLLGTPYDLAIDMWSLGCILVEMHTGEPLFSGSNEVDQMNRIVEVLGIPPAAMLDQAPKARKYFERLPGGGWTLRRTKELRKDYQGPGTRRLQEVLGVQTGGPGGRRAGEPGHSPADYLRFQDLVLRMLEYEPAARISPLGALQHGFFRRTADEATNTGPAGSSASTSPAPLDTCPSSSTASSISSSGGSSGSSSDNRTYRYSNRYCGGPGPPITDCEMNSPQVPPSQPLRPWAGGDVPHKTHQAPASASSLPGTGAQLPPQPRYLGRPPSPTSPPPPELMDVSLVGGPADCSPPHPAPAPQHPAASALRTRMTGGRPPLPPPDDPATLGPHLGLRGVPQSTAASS
Dual specificity protein kinase CLK3, sequence (O35492 whole entry, the tested form may be a part): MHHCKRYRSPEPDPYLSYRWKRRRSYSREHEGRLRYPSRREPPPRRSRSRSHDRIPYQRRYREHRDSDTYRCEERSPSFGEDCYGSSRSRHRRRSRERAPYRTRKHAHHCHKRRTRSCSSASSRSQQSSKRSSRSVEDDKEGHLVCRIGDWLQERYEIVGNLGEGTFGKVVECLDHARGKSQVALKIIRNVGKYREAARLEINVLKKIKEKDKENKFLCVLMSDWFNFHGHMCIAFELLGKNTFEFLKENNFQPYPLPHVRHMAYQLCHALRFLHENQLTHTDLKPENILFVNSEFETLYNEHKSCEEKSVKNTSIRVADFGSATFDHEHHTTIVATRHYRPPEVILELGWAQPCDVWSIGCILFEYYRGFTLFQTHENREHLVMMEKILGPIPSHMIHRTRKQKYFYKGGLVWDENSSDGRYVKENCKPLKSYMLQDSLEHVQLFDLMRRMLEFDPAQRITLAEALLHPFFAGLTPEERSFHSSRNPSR
Cannabinoid receptor 1, sequence (P21554 whole entry): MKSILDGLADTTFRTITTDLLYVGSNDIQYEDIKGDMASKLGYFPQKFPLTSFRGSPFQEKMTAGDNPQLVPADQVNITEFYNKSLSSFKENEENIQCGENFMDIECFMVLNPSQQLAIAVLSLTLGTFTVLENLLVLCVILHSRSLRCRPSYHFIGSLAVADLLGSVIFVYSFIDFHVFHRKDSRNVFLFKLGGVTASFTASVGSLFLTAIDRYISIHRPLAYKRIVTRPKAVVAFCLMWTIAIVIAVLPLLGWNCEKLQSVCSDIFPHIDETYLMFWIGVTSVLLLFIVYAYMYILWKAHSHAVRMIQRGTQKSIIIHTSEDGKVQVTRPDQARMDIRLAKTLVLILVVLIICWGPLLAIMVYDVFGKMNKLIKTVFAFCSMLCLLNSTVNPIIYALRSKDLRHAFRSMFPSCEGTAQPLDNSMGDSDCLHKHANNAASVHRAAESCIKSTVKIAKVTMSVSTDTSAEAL
Dual specificity protein kinase CLK1, sequence (P22518 whole entry, the tested form may be a part): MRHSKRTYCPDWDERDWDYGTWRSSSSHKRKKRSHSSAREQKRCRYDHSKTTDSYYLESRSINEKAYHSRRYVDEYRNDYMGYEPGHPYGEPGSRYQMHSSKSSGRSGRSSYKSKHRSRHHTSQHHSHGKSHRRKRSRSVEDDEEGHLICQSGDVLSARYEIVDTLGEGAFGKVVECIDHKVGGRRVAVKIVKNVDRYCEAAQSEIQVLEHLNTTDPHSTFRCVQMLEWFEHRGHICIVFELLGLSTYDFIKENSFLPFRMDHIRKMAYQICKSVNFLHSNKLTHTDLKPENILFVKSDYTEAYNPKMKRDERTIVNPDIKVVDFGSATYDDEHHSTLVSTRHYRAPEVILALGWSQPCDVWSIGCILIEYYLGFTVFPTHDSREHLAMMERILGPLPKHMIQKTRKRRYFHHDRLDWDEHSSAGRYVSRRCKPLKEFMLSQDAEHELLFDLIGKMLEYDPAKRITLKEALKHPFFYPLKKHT

Row | SMILES | IC50 [1] | Activity (U2OS) | IC50 [2] | IC50 (Casein kinase 2) | IC50 [3] | EC50 (HT-22 [4]) | IC50 [5] | Activity [6] | IC50 [7] | IC50 [8] | deltaCT (HT-22 [9]) | IC50 [10] | IC50 [11] | IC50 [12] | IC50 [13] | Activity (Cannabinoid receptor 1) | IC50 at 24 h [14] | Activity (Cannabinoid receptor 1; filed as antagonist) | EC50 at 24 h [14]
1 | CCCNC1=N/C(=C\c2ccc3c(c2)OCO3)C(=O)N1C | 95 nM | 6.8 | 1200 nM | > 10000 nM | 1400 nM | > 20000 nM | 120 nM | Non-Toxic | 550 nM | 3200 nM | 3.72 | 2500 nM | 460 nM | 110 nM | 560 nM | -15.8% | – | – | –
2 | O=C1NC(Nc2ccccc2)=N/C1=C\c1ccc2c(c1)CCCO2 | 120 nM | 4.8 | 420 nM | 2200 nM | > 10000 nM | 3500 nM | 140 nM | – | 360 nM | 1200 nM | – | ≥ 10000 nM | 120 nM | 120 nM | 1800 nM | – | > 20000 nM | 94% | –
3 | CCCSC1=N/C(=C\c2ccc3c(c2)OCO3)C(=O)N1C | 330 nM | 6.2 | 620 nM | > 10000 nM | 2000 nM | – | 22 nM | Non-Toxic | 620 nM | 2000 nM | -1.36 | > 10000 nM | 340 nM | 64 nM | 320 nM | 37.2% | – | – | –
4 | O=C1NC(N2CCCC2)=N/C1=C\c1ccc2c(c1)OCO2 | 930 nM | 5 | 930 nM | 1200 nM | 6200 nM | – | 380 nM | Non-Toxic | 2300 nM | 1500 nM | 0.05 | 3200 nM | 630 nM | 600 nM | 2300 nM | -59.1% | – | – | –
5 | Cc1ccc(NC2=N/C(=C\c3ccc4c(c3)OCO4)C(=O)N2)cc1 | 34 nM | 8.4 | 320 nM | 1700 nM | 7300 nM | 3200 nM | 56 nM | Non-Toxic | 53 nM | 3500 nM | 2.29 | – | 18 nM | 53 nM | 1000 nM | – | – | 90.8% | –
6 | O=C1NC(N2CCN(c3ccc(F)cc3)CC2)=N/C1=C\c1ccc2c(c1)OCCO2 | 2200 nM | 8.1 | 2100 nM | – | 8200 nM | 14000 nM | 2300 nM | – | ≥ 10000 nM | 9300 nM | – | > 10000 nM | 3100 nM | 2100 nM | 10000 nM | 16% | > 20000 nM | – | –
7 | CN1CCN(c2ccc(NC3=N/C(=C\c4ccc5c(c4)OCO5)C(=O)N3)cc2)CC1 | 50 nM | 24.9 | 25 nM | 1200 nM | 120 nM | > 20000 nM | 16 nM | Non-Toxic | – | 1100 nM | 7.48 | 800 nM | 12 nM | 23 nM | 35 nM | -14.5% | – | – | –
8 | O=C1NC(N2CCOCC2)=N/C1=C\c1ccc2c(c1)OCO2 | 410 nM | 6.5 | 1900 nM | 1100 nM | 6500 nM | – | 290 nM | Non-Toxic | 1700 nM | 2400 nM | 0.63 | 5600 nM | 440 nM | 430 nM | 1500 nM | -51% | – | – | –
9 | O=C1NC(Nc2ccccc2)=NC1Cc1ccc2c(c1)OCO2 (centres undefined) | > 10000 nM | – | > 10000 nM | – | > 10000 nM | – | 5600 nM | – | > 10000 nM | – | – | > 10000 nM | 5100 nM | 6270 nM | > 10000 nM | – | – | – | > 20000 nM
10 | COc1cccc(/C=C2\N=C(Nc3ccccc3)NC2=O)c1 | > 10000 nM | 5.7 | – | – | – | 7200 nM | 5000 nM | – | – | 3100 nM | – | – | > 10000 nM | ≥ 10000 nM | > 10000 nM | – | – | 71.9% | > 20000 nM
11 | COc1ccc(/C=C2\N=C(Nc3ccccc3)NC2=O)cc1 | 220 nM | 5.8 | 2100 nM | 2100 nM | – | 5300 nM | 280 nM | – | 550 nM | ≥ 10000 nM | – | – | 170 nM | 340 nM | > 10000 nM | – | > 20000 nM | 92.2% | –
12 | O=C1NC(NC2CCNCC2)=N/C1=C\c1ccc2c(c1)OCO2 | 250 nM | 7.4 | 910 nM | > 10000 nM | 1300 nM | – | 260 nM | Non-Toxic | 650 nM | 6400 nM | 0.36 | 5300 nM | 340 nM | 220 nM | 900 nM | -43.5% | – | – | –
13 | CCSC1=N/C(=C\c2ccc3c(c2)OCO3)C(=O)N1C | 340 nM | 6.8 | 300 nM | > 10000 nM | 1100 nM | – | 110 nM | Non-Toxic | 980 nM | 2100 nM | -0.99 | 2100 nM | 240 nM | 120 nM | 420 nM | -0.7% | – | – | –
14 | CN1C(=O)/C(=C/c2ccc3c(c2)OCO3)N=C1Nc1ccccc1 | 80 nM | 7.9 | 870 nM | > 10000 nM | 750 nM | 14000 nM | 110 nM | Non-Toxic | 3200 nM | ≥ 10000 nM | 4.42 | 1400 nM | 93 nM | 140 nM | 500 nM | -5.5% | – | – | –
